Assay results: US10626349B2, “Cleavable surfactants” (PROMEGA CORPORATION, priority 2007, dated 2020)

Key:
[1] = target: T1, Bacteriorhodopsin digested with chymotrypsin (Halobacterium salinarum, UniProt P02945); experiment: Bacteriorhodopsin/Chymotrypsin digest, HPLC peak area versus RapiGest control; assay type: biochemical; details: 0.025% surfactant
T1 sequence (P02945 14-261 limits assumed): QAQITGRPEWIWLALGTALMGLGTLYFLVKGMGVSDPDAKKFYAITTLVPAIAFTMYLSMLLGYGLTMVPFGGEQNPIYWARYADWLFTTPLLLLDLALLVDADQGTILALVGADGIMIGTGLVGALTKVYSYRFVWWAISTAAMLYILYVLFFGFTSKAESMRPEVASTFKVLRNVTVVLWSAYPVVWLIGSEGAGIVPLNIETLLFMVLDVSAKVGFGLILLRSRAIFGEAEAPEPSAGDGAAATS
Experimental: Bacteriorhodopsin (25 μs) was heated with 0.025% Rapigest™ surfactant or the indicated compound of the invention for 5 minutes at 95° C., then digested with chymotrypsin (Sigma) at a 10:1 ratio in 125 μL 50 mM Ammonium bicarbonate for 1 hour at 37° C. After one hour TFA was added to 0.5-2% and the mixtures were incubated at 37° C. or 65° C. for 20 or 30 minutes. Degraded surfactant was removed by centrifugation at 14,000×g for 5 minutes. An aliquot of 50-100 μL of digested protein was analyzed by HPLC as described above.
Compound 3211, 3212, 3224 and Rapigest™ surfactant control for FIG. 13C reactions: Bacteriorhodopsin (25 μs) was solubilized with 0.025% compound of interest for 1-2 minutes at room temperature, then digested with chymotrypsin (Sigma) at a 10:1 ratio in 125 μL 50 mM Ammonium bicarbonate for 1 hour at 37° C. After one hour TFA was added to 0.5-2% and the mixtures were incubated at 37° C. or 65° C. for 20 or 30 minutes. Degraded surfactant was removed by centrifugation at 14,000×g for 5 minutes. An aliquot of 50-100 μL of digested protein was analyzed by HPLC as described above.
(§1) For each compound numbered below in Example 12, the rate of enhanced digestion was determined from the ratio of the surfactant peak area (surfactant # Pk. Area) to the Rapigest™ surfactant peak area (RG Pk area). Peak area was determined as the sum of all peaks integrated from 8-22 minutes.

[2] = target: T2, Myoglobin from horse heart digested with trypsin (Equus caballus, UniProt P68082); experiment: Myoglobin/Trypsin digest, HPLC peak area versus RapiGest control; assay type: biochemical; details: 0.01% surfactant, trypsin 50:1, 20 minutes at 37° C.; ratio to RapiGest control, >1 = more digestion
T2 construct: Myoglobin from horse heart; from tissue; host or cells: horse heart
T2 sequence (P68082 2-154 limits assumed): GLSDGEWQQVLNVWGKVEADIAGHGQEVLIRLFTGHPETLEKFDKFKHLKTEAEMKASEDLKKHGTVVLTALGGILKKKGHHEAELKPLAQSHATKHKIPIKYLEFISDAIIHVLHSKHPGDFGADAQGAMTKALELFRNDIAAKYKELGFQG
Experimental: Myoglobin from horse heart (typically 25 μs) was digested with trypsin (Promega) at a 50:1 ratio in a volume of 125 μL (typical) of 50 mM Ammonium bicarbonate for 20 minutes at 37° C. with 0.01% RapiGest™ surfactant or 0.01% of the indicated compound of the invention (upper and lower chromatograms, respectively). TFA was added to 0.5-2% and the mixtures were incubated at 37° C. or 65° C. for 20 or 30 minutes. Degraded surfactant was removed by centrifugation at 14,000×g for 5 minutes. HPLC analysis was performed on a 25-50 μL reaction sample using an HP1050 LC system with an Agilent Sorbax SB-C18 column (3.0×100 mm, 3.5 micron) and a gradient of 0.1% TFA (97.5% initial) and Acetonitrile, 0.01% TFA (55% final condition followed by a 100% wash step) and a flow rate of 0.75 mL/min. Peptides were detected at 214 and 280 nm.
as §1

[3] = Solubility of the surfactant
[4] = Acid and thermal degradation of the surfactant; details: for degradation after overnight incubation (in words): concentration not given; for thermolability (in words): 3266: 5 minutes at 95° C.; for acid-lability (in words): 0.5% TFA at 37° C. where stated (3237: 30 minutes), 3271 by TLC analysis
[5] = Hydrolytic stability in 50 mM ammonium bicarbonate (reverse-phase HPLC); assay type: physicochemical
Experimental: Hydrolytic stability was measured by monitoring the change in retention time of the intact surfactant by reverse-phase HPLC. The ½-life is defined as the time required to reach 50% degradation.

[6] = BR heated (boiled) with surfactant 5 minutes at 95° C., chymotrypsin 10:1, 1 hour at 37° C., ratio to RapiGest control
[7] = surfactant conc. 0.0025% in 50 mM ammonium bicarbonate
[8] = surfactant conc. 0.025% in 50 mM ammonium bicarbonate

Compound	surfactant Pk area/RG Pk area, Bacteriorhodopsin/Chymotrypsin digest [1, 6]	surfactant Pk area/RG Pk area, Myoglobin/Trypsin digest [2]	solubility in aqueous solutions (concentration dissolved to) ([3]; aqueous solution)	other results
CCCCCCCCCCCC(C)(C)OC(=O)Nc1ccc(N(CCCCS(=O)(=O)[O-])CCCCS(=O)(=O)O)cc1.[Na+] [Compound 3194]	1.1	0.72	0.5%	degradation after overnight incubation (in words) [4]: No degradation was observed even after overnight incubation
CCCCCCCCCCC(OC(=O)NCCCS(=O)(=O)O)c1ccc(C(F)(F)F)cc1 (centres unmarked) [Compound 3200]	0.8	0.7	~0.01%	degradation after overnight incubation (in words) [4]: No degradation was observed even after overnight incubation
CCCCCCOc1ccc(C(OCCCS(=O)(=O)[O-])(c2ccccc2)c2ccccc2)cc1.[Na+] [Compound 3202]	0.6	1.1	~0.01%	time to degradation of 0.01% solution ([4]; 0.01% solution, 37° C. where stated): ≤ 30 min
CCCCCCCC(C)(C)OC(=O)NCC(O)CS(=O)(=O)O (centres unmarked) [Compound 3204]	0.55	0.87	0.5%	degradation rate (grade in words) [4]: moderate
CCCCCCCCCOCC(C)(C)OC(=O)NCCCS(=O)(=O)O [Compound 3205]	0.45	0.3	0.5%	degradation after overnight incubation (in words) [4]: No degradation was observed even after overnight incubation
CCCCCCCCCSCC(C)(C)OC(=O)NCCCS(=O)(=O)O [Compound 3206]	0.8	0.26	0.5%	degradation rate (grade in words) [4]: moderate
CCCCCCCCCCCCCCC(OC(=O)NCCCS(=O)(=O)[O-])c1ccc(OC)cc1.[Na+] (centres unmarked) [Compound 3213]	1.3	0.8	0.025%	½-life [5, 7]: 62 h; ½-life [5, 8]: 128 h
CCCCCCCCCCOc1ccc(C(OCCN(CCCCS(=O)(=O)[O-])CCCCS(=O)(=O)[O-])(c2ccccc2)c2ccccc2)cc1.[Na+].[Na+] [Compound 3215]	1.2	0.56	1%	time to degradation in 0.5% TFA ([4]; 0.1% solution): 1 h; thermolability (in words) [4]: moderate thermolability
CCCCCCCCCCOc1ccc(C(OCCN(CCCCS(=O)(=O)[O-])CCCCS(=O)(=O)[O-])(c2ccccc2)c2ccc(OC)cc2)cc1.[Na+].[Na+] (centres unmarked) [Compound 3220]	0.8	0.2	1%	time to degradation in 0.5% TFA ([4]; 37° C. where stated, 0.1% solution for 3220 and 3266): ≤ 0.25 h; thermolability (in words) [4]: moderate thermolability
CCCCCCCCCCCCC(OC(=O)NCCCS(=O)(=O)O)c1ccco1 (centres unmarked) [Compound 3224]		1.3	0.25%	surfactant Pk area/RG Pk area, Bacteriorhodopsin/Chymotrypsin digest ([1]; BR solubilized at room temperature (not boiled), RapiGest control boiled): 0.74; ½-life [5, 7]: 1.3 h; ½-life [5, 8]: 8.3 h; ½-life ([5]; surfactant conc. 0.10% in 50 mM ammonium bicarbonate): 23 h; ½-life ([5]; surfactant conc. 0.25% in 50 mM ammonium bicarbonate): 22 h; solubility after adding ACN ([3]; ACN added to 20%): 2%
CCCCCCCCCCC1COC(c2cc(OCCCS(=O)(=O)[O-])ccc2[N+](=O)[O-])O1.[Na+] (centres unmarked) [Compound 3225]	0.9	1.1		solubilized in DMSO to ([3]; 100% DMSO): 10%; solubility in aqueous solutions (in words) ([3]; aqueous solution): Not soluble in aqueous solutions; acid-lability (in words) [4]: slowly degrades in 0.5% TFA at 37 °C; thermolability (in words) [4]: No thermolability was observed
CCCCCCCCCCC1COC(c2cccc(OCCCS(=O)(=O)[O-])c2)O1.[Na+] (centres unmarked) [Compound 3228]	1.2	1.4	1%	degradation rate (grade in words) [4]: low
CCCCCCCCCCC(OC(=O)NCCCS(=O)(=O)O)c1cc(OC)cc(OC)c1 (centres unmarked) [Compound 3236]	0.71	1.4	1%	degradation by acid (0.5% TFA) or by heat (boiling), in words ([4]; 3236: 0.1% solution in 0.5% TFA 30 minutes at 37° C. or 5 minutes of boiling without TFA): no degradation was observed
CCCCCCCCCCC(OC(=O)NCCCS(=O)(=O)O)c1ccccc1OC (centres unmarked) [Compound 3237]	1	1.4	0.5%	acid-lability (in words) [4]: Moderate degradation was observed
